US20040019082A1, “Reversible infertility in male mice following oral administration of alkylated imino sugars: a non-hormonal approach to male contraception” (United Therapeutics Corporation, priority 2002, published 2004)

How the values were obtained:
alpha-glucosidase 1 = biological target: T1, alpha-glucosidase 1 (Homo sapiens, UniProt Q13724); conditions: involved in N-glycan synthesis; cited from earlier work
T1 sequence (Q13724 1-837): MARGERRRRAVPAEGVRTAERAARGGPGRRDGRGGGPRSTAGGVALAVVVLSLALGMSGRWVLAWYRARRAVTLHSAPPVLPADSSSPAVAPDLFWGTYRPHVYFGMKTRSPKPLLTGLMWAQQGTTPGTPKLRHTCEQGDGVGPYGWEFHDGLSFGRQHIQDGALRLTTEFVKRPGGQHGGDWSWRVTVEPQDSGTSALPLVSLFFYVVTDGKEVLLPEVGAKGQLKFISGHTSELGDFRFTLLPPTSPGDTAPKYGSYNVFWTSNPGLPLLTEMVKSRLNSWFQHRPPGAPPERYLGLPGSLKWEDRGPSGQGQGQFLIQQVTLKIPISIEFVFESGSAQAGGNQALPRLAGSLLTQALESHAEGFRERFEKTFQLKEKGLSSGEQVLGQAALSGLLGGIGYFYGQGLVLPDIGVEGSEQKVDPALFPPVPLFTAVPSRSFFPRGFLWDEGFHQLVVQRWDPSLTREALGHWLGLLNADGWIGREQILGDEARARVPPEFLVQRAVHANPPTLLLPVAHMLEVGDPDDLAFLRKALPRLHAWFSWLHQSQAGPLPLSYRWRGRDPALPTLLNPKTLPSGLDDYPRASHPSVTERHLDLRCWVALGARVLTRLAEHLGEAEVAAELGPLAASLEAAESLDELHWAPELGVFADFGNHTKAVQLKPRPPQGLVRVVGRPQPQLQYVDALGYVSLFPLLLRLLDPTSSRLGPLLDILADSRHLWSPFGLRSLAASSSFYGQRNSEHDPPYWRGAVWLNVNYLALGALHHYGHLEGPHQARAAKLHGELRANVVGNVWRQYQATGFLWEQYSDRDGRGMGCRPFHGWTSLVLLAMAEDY

seminiferous tubules = assay: Testis histology; assay type: in vivo, mouse; conditions: 50 mg/kg/day (FIG. 4B)
Excerpt: Histology and Scanning electronmicroscopy—Testes were obtained from mice perfused with 4% paraformaldehyde, 1% gluteraldehyde, kept in the fixative for two days, and transferred to 70% ethanol. Tissues were post-fixed with 2% osmium tetroxide, embedded in araldite, sectioned at 1 μm, and stained with Toluidine Blue. Sections were examined with a Zeiss Axioskop II, and images were acquired with an Axiocam camera, operated by Axiovision 3.0 software.

epididymal spermatozoa = assay: Computer-assisted sperm motility analysis; assay type: in vivo, mouse; conditions: mean ± SD, n ≧ 3
Description: Motility analysis. Mice were terminated by asphyxiation in CO2 and cervical dislocation, and caudae epididymides were removed with vasa deferentia. Spermatozoa were collected in pre-warmed M2 medium (Sigma) by stripping the vasa deferentia and by applying mild pressure to the caudae epididymides; the cells were incubated at 37° C. for 1 hour, and videographed using a Leica DM IRB microscope fitted with a JVC TK-1281 camera. Computer-assisted sperm motility analysis was performed using a Hobson Sperm Tracker (Hobson Vision Ltd., UK) at 50 frames per second. Motility parameters of each sperm sample were measured in triplicate, collecting data from 200 sperm tracks per determination.

[1] = test system: female mice of strain 129; assay: Fertility of treated female mice of strain 129; assay type: in vivo, mouse; conditions: 2400 mg/kg day for 12 weeks, 15 week-old females, caged with untreated males
Description: NB-DNJ was administered at 2400 mg/kg day for 12 weeks to 15 week-old female mice of strain 129. After this, the drug was withdrawn and the females were caged with untreated males of strain 129. […] The mice in this experiment were heterozygous for a disruption in the gene encoding ceramide galactosyltransferase. These mice are phenotypically indistinguishable from wild-type 129 mice and reproduce normally (Coetzee et al., (1996), Cell, 86:209-219).

[2] = test system: testosterone, luteinising and follicle-stimulating hormones; assay: Endocrinological assays; assay type: in vivo, mouse
Description: Endocrinological assays—Following termination of mice by asphyxiation in CO2 and cervical dislocation, blood was obtained via cardiac puncture, which was allowed to clot at room temperature (RT). Serum was obtained by centrifugation, and stored at −80° C. until use. Testosterone, luteinising and follicle-stimulating hormones were measured by methods well-known in the art (Huhtaniemi, I., Nikula, H. & Rannikko, S. (1985) J Clin Endocrinol Metab 61, 698-704; Haavisto, A. M., Pettersson, K., Bergendahl, M., Perheentupa, A., Roser, J. F. & Huhtaniemi, I. (1993) Endocrinology 132, 1687-91; van Casteren, J. I., Schoonen, W. G. & Kloosterboer, H. J. (2000) Biol Reprod 62, 886-94.)

**Q.** For `CCCCN1C[C@H](O)[C@@H](O)[C@H](O)[C@H]1CO` [NB-DNJ, N-butyldeoxynojirimycin], which “inhibition of alpha-glucosidase 1” value (alpha-glucosidase 1) is on record?
**A.** potent inhibitor

**Q.** And the “morphology of nuclei of mature spermatids” value (seminiferous tubules)?
**A.** aberrant, heterogeneous morphology

**Q.** What about the “vacuolization in seminiferous tubules versus controls” value (seminiferous tubules) of the same molecule?
**A.** more extensive vacuolization

**Q.** And the “% motile” value (epididymal spermatozoa; NB-DNJ 15 mg/kg/day)?
**A.** 26 ± 16%

**Q.** What about the “VCL, curvilinear velocity” value (epididymal spermatozoa; NB-DNJ 15 mg/kg/day) of the same molecule?
**A.** 74 ± 31 μm/sec

**Q.** What about the “VSL, straight line velocity” value (epididymal spermatozoa; NB-DNJ 15 mg/kg/day) of the same molecule?
**A.** 27 ± 9 μm/sec

**Q.** And the “% motile” value (epididymal spermatozoa; NB-DNJ 150 mg/kg/day)?
**A.** 15 ± 6%

**Q.** What about the “VCL, curvilinear velocity” value (epididymal spermatozoa; NB-DNJ 150 mg/kg/day) of the same molecule?
**A.** 89 ± 31 μm/sec

**Q.** And the “VSL, straight line velocity” value (epididymal spermatozoa; NB-DNJ 150 mg/kg/day)?
**A.** 27 ± 8 μm/sec

**Q.** What about the “% motile” value (epididymal spermatozoa; NB-DNJ 1200 mg/kg/day) of the same molecule?
**A.** 17 ± 7%

**Q.** And the “VCL, curvilinear velocity” value (epididymal spermatozoa; NB-DNJ 1200 mg/kg/day)?
**A.** 49 ± 17 μm/sec

**Q.** And the “VSL, straight line velocity” value (epididymal spermatozoa; NB-DNJ 1200 mg/kg/day)?
**A.** 18 ± 9 μm/sec

**Q.** And the “% motile” value (epididymal spermatozoa; NB-DNJ 2400 mg/kg/day)?
**A.** 9 ± 2%

**Q.** What about the “VCL, curvilinear velocity” value (epididymal spermatozoa; NB-DNJ 2400 mg/kg/day) of the same molecule?
**A.** 28 ± 21 μm/sec

**Q.** What about the “VSL, straight line velocity” value (epididymal spermatozoa; NB-DNJ 2400 mg/kg/day) of the same molecule?
**A.** 9 ± 5 μm/sec

**Q.** What about the average litter size [1] of the same molecule?
**A.** 6 pups

**Q.** And the “pregnancy after drug withdrawal” value [1]?
**A.** All females quickly became pregnant

**Q.** What about the “serum testosterone, FSH, LH and testicular testosterone” value ([2]; 2400 mg/kg/day, p<0.001) of the same molecule?
**A.** significant reduction

**Q.** And the “serum testosterone, FSH, LH and testicular testosterone” value ([2]; 15, 150 or 1200 mg/kg/day)?
**A.** did not change
